Measured values from patent US20030049204A1, “Individualization of therapy with gastroesophageal reflux disease agents” (McGill University, priority 2001, published 2003).
Read-outs that look alike come from different tables or passages of the source. Marks after values point to notes of the source that are not given here.

Tests used:
AAMU-Ab = experiment: Competitive antigen ELISA, cross-reactivity of AAMU-Ab; type: binding, rabbit; settings: 0 = absence of inhibition or inhibition no higher than 40% at highest concentration tested (5 × 10^−3 M)
Procedure: (§1) Four mature females New Zealand white rabbits (Charles River Canada, St-Constant, Que., Canada) are used for antibody production. The protocol employed in this study was approved by the McGill University Animal Care Committee in accordance with the guidelines from the Canadian Council on Animal Care. Antibodies of the present invention may be monoclonal or polyclonal antibodies.
(§2) A 0.5 mL aliquot of the emulsion ([…] of antigen) is injected per rabbit intramuscularly or subcutaneously. Rabbits are subsequently boosted at intervals of three weeks with […] of antigen emulsified in incomplete Freund's adjuvant. […] Antisera are stored at 4° C. in the presence of 0.01% sodium azide.
(§3) Buffers and water without additives are filtered through millipore filters and kept for 1 week. BSA, antibodies, Tween™ 20 and horse radish peroxidase conjugates are added to these buffers and water just prior to use. Urine samples are usually collected 4 hours after drinking a cup of coffee (instant or brewed with approximately 100 mg of caffeine per cup) and stored at −80° C. The urine samples are diluted 10 times with sodium phosphate buffer (620 mosm, pH 7.50) and are subsequently diluted with water to give concentrations of AAMU and 1X no higher than 3×10^−6 M in the ELISA. All the pipettings are done with an eight-channel pipette, except those of the antibody and sample solutions. Starting with the last well, 100 μL of a carbonate buffer (100 mM, pH 9.6) containing 2.5 μg mL-^1 antibodies are added to each well. After 90 min. at room temperature, the wells are washed three times with 100 mL of TPB: isotonic sodium phosphate buffer (310 mosm, pH 7.50) containing 0.05% Tween™ 20.
(§4) After the initial wash, unoccupied sites are blocked by incubation for 90 min. at room temperature with 100 μL TBP containing 3% BSA. The wells are washed four times with 100 μL TPB. […] The microplate is gently shaken with an orbital shaker at room temperature for 3-4 hours. The wells are washed three times with 100 μL TPB containing 1% BSA and three times with water containing 0.05% Tween™ 20. To the washed plate is added 150 μL of a substrate buffer composed of citric acid (25 mM) and sodium phosphate dibasic buffer (50 mM, pH 5.0) containing 0.06% hydrogen peroxide and 0.04% o-phenylenediamine hydrochloride.
as §3, with “were” for “are”, “They were” for “The urine samples are”, “mL^−1” for “mL-^1”, “was pipetted.” for “are added to each well.”, “μL” for “mL”
(§5) After the initial wash, unoccupied sites were blocked by incubation for 90 min. at room temperature with 100 μL TBP containing 3% BSA. The wells were washed four times with 100 μL TPB. […] The microplate was gently shaken with an orbital shaker at room temperature for 3-4 hours. The wells were washed three times with 100 μL with TPB containing 1% BSA and three times with water containing 0.05% Tween™ 20. To the washed plate was added 150 μL of a substrate buffer composed of citric acid (25 mM) and sodium phosphate dibasic buffer (50 mM, pH 5.0) containing 0.06% hydrogen peroxide and 0.04% o-phenylenediamine hydrochloride.

1X-Ab = experiment: Competitive antigen ELISA, cross-reactivity of 1X-Ab; type: binding, rabbit; settings: 0 = absence of inhibition or inhibition no higher than 40% at highest concentration tested (5 × 10^−3 M)
Procedure: as §1, §2, §3, §4
as §3, with “were” for “are”, “They were” for “The urine samples are”, “mL^−1” for “mL-^1”, “was pipetted.” for “are added to each well.”, “μL” for “mL”
as §5

[1] = cited from earlier work
[2] = test system: plasma proteins, mainly albumin; settings: cited from earlier work
[3] = especially less severe degrees of esophagitis; cited from earlier work
[4] = biological target: serotonin-4 (5-HT4) receptor (Homo sapiens, UniProt Q13639); settings: in vitro; cited from earlier work
[5] = biological target: T1, rapid component of the delayed rectifying K^+ current (lkr) (Oryctolagus cuniculus, UniProt Q8WNY2); settings: in vivo anesthetized guinea pig and rabbit; in vitro isolated rabbit preparations; cited from earlier work
T1 construct: in vitro isolated rabbit Purkinje fibers and ventricular papillary muscle and isolated rabbit ventricular myocyte models; from tissue; host or cells: rabbit Purkinje fibers, ventricular papillary muscle and ventricular myocytes; also anesthetized guinea pig and rabbit in vivo
T1 sequence (Q8WNY2 1-1161): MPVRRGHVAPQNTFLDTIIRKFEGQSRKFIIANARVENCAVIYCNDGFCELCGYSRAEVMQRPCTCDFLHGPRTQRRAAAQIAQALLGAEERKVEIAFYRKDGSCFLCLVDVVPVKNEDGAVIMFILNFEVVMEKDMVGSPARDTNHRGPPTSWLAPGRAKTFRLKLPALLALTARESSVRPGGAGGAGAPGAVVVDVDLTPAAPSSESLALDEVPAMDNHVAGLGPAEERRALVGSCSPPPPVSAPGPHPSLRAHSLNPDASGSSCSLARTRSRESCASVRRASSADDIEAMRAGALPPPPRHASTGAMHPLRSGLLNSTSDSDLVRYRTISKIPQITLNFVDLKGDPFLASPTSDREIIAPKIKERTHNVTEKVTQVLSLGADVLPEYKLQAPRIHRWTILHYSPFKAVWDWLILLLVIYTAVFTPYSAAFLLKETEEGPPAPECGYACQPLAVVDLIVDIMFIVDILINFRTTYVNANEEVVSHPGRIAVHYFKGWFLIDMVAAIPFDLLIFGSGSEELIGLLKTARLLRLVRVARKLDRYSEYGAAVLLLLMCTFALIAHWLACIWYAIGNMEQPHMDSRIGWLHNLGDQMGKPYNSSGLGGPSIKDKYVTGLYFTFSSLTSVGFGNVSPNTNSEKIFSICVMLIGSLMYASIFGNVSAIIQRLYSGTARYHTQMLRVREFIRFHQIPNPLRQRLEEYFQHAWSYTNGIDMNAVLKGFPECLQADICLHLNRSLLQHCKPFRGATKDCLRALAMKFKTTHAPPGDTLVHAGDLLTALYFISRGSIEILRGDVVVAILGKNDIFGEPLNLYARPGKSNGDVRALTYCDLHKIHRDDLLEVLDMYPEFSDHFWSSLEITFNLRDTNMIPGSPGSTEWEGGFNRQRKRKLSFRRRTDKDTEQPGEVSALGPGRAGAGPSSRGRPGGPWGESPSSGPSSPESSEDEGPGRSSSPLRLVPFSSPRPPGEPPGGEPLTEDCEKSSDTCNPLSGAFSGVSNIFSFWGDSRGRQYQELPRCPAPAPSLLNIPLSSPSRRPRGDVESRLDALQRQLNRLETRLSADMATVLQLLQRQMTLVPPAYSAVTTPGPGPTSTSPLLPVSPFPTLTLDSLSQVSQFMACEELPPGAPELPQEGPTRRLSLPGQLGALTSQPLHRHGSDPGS

[6] = in vivo; cited from earlier work
[7] = cited from earlier work; remark: listed apart in the source

Sequence of serotonin-4 (5-HT4) receptor (Q13639 whole entry, species assumed): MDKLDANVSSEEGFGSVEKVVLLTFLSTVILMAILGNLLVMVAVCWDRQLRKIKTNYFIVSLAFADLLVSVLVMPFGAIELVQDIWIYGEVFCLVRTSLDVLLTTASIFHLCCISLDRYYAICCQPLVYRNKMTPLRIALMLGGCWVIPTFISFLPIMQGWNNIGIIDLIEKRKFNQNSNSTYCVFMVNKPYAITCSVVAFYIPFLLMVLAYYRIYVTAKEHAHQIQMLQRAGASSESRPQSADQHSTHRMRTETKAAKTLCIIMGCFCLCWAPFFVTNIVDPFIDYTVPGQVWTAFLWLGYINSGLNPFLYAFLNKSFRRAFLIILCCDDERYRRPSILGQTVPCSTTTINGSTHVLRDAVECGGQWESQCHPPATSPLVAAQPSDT

Cn1c(=O)c2c(ncn2C)n(C)c1=O [1,3,7-Trimethyl Xanthine (Caffeine), 1,3,7-Trimethyl Xanthine]
% Cross-Reaction AAMU-Ab (AAMU-Ab): 0%
% Cross-Reaction 1X-Ab (1X-Ab): 0%

Cn1c(=O)c2[nH]cnc2n(C)c1=O [1,3-Dimethyl Xanthine (Theophylline), 1,3-Dimethyl Xanthine]
% Cross-Reaction AAMU-Ab (AAMU-Ab): 0%
% Cross-Reaction 1X-Ab (1X-Ab): 0.2%

Cn1c(=O)[nH]c2ncn(C)c2c1=O [1,7-Dimethyl Xanthine (Paraxanthine), 1,7-Dimethyl Xanthine]
% Cross-Reaction AAMU-Ab (AAMU-Ab): 0%
% Cross-Reaction 1X-Ab (1X-Ab): 0.5%

Cn1c(=O)[nH]c2[nH]c(=O)n(C)c2c1=O [1,7-Dimethyluric acid]
% Cross-Reaction AAMU-Ab (AAMU-Ab): 0%
% Cross-Reaction 1X-Ab (1X-Ab): 0%

Cn1c(=O)[nH]c2nc[nH]c2c1=O [1-Methyl Xanthine (1X), 1-Methyl Xanthine]
% Cross-Reaction AAMU-Ab (AAMU-Ab): 0%
% Cross-Reaction 1X-Ab (1X-Ab): 100%

Cn1c(=O)[nH]c2[nH]c(=O)[nH]c2c1=O [1-Methyluric acid]
% Cross-Reaction AAMU-Ab (AAMU-Ab): 0%
% Cross-Reaction 1X-Ab (1X-Ab): 11%

Cn1cnc2c1c(=O)[nH]c(=O)n2C [3,7-Dimethyl Xanthine (Theobromine), 3,7-Dimethyl Xanthine]
% Cross-Reaction AAMU-Ab (AAMU-Ab): 0%
% Cross-Reaction 1X-Ab (1X-Ab): 0%

Cn1c(=O)[nH]c(=O)c2[nH]cnc21 [3-Methyl Xanthine]
% Cross-Reaction AAMU-Ab (AAMU-Ab): 0%
% Cross-Reaction 1X-Ab (1X-Ab): 0%

CC(=O)Nc1c(N)n(C)c(=O)n(C)c1=O [5-Acetamino-6-amino-1,3-dimethyluracil]
% Cross-Reaction AAMU-Ab (AAMU-Ab): 0%
% Cross-Reaction 1X-Ab (1X-Ab): 0%

CC(=O)Nc1c(N)n(C)c(=O)[nH]c1=O [5-Acetamino-6-amino-1-methyluracil]
% Cross-Reaction AAMU-Ab (AAMU-Ab): 100%
% Cross-Reaction 1X-Ab (1X-Ab): 0%

CC(=O)Nc1c(N)[nH]c(=O)[nH]c1=O [5-Acetamino-6-amino-uracil]
% Cross-Reaction AAMU-Ab (AAMU-Ab): 0.6%
% Cross-Reaction 1X-Ab (1X-Ab): 0%

Cn1cnc2[nH]c(=O)[nH]c(=O)c21 [7-Methyl Xanthine]
% Cross-Reaction AAMU-Ab (AAMU-Ab): 0%
% Cross-Reaction 1X-Ab (1X-Ab): 0%

Cc1nc2[nH]c(=O)[nH]c(=O)c2[nH]1 [8-Methyl Xanthine]
% Cross-Reaction AAMU-Ab (AAMU-Ab): 0%
% Cross-Reaction 1X-Ab (1X-Ab): 0%

COc1cc(N)c(Cl)cc1C(=O)NC1CCN(CCCOc2ccc(F)cc2)CC1OC (centres unmarked) [Cisapride]
half-life ([1]; following intravenous (IV) administration): up to 20 hours
absolute bioavailability ([1]; in vivo): 35-40%
plasma clearance ([1]; in vivo): about 100 ml/min
volume of distribution ([1]; in vivo): about 180 L
unmetabolized drug accounted for in urinary and fecal recovery ([1]; oral administration): less than 10%
binding to plasma proteins [2]: 97.5-98%
long-term control of GERD, individuals [3]: up to 50%
activity at serotonin-4 (5-HT4) receptor [4]: receptor agonist
effect on cardiac repolarization [5]: prolonged cardiac repolarization without slowing conduction
deaths among reports of heart rhythm abnormalities [6]: 80
diarrhea, individuals affected [6]: about 10%
reports of heart rhythm abnormalities [6]: at least 341

Nc1nc2nc[nH]c2c(=O)[nH]1 [Guanine]
% Cross-Reaction AAMU-Ab (AAMU-Ab): 0%
% Cross-Reaction 1X-Ab (1X-Ab): 0%

O=c1[nH]cnc2nc[nH]c12 [Hypoxanthine]
% Cross-Reaction AAMU-Ab (AAMU-Ab): 0%
% Cross-Reaction 1X-Ab (1X-Ab): 0%

O=c1cc[nH]c(=O)[nH]1 [Uracil]
% Cross-Reaction AAMU-Ab (AAMU-Ab): 0%
% Cross-Reaction 1X-Ab (1X-Ab): 0%

O=c1[nH]c(=O)c2[nH]c(=O)[nH]c2[nH]1 [Uric acid]
% Cross-Reaction AAMU-Ab (AAMU-Ab): 0%
% Cross-Reaction 1X-Ab (1X-Ab): 0%

O=c1[nH]c(=O)c2[nH]cnc2[nH]1 [Xanthine]
% Cross-Reaction AAMU-Ab (AAMU-Ab): 0^a %
% Cross-Reaction 1X-Ab (1X-Ab): 0%

Nc1ccc(S(=O)(=O)c2ccc(N)cc2)cc1 [dapsone]
adverse reactions ([7]; fast acetylators): 17%
adverse reactions ([7]; slow acetylators): 46%
